Reference: patent publication US20250368623A1, “PYRIDAZINONE-DERIVED COMPOUNDS FOR THE MODULATION OF MYC AND FOR MEDICAL USES” (GENETIC INTELLIGENCE, INC, priority 2022, published 2025)
Read-outs that look alike come from different tables or passages of the source.

Assays:
MDA-MB-231 [1] = assay: Mouse hollow fiber model, TNBC (MDA-MB-231); assay type: in vivo; conditions: TNBC MDA-MB-231 hollow fibers s.c. in mice; 50 mg/kg orally once daily for five days; modified MTT; vs Day 5 vehicle
Procedure: (§1) The in vivo efficacy of test compounds (e.g., 6-(2,4-dimethylthiazol-5-yl)-2-((1-(pyrido[2,3-d]pyrimidin-4-yl)piperidin-4-yl)methyl)pyridazin-3(2H)-one) on cancer cells is determined using the mouse hollow fiber model established at the National Cancer Institute (NCI). Triple negative breast cancer (TNBC) (MDA-MB-231), pancreatic cancer (Mia-PaCa-2), and liver cancer (HepG2) cells are added to differently colored hollow fibers (KrosoFlo@Implant membrane, Green: Lot No.: 20051617, Blue: Lot No.: 20008858, White: Lot No.: 20051615) and sealed at both ends. Three hollow fibers each containing a different cancer line are surgically implanted subcutaneously into both the left and right flanks of mice (total of six hollow fibers per mouse). Drug treatment is initiated on Day 0, three days post implantation of fibers. Each treatment group has 2 mice (4 hollow fibers per cancer type): Group 1: Vehicle control; Group 2: Gemcitabine control dosed intraperitoneally (i.p.) at 50 mg/kg once every three days; Group 3: Test compound dosed orally at 50 mg/kg once daily for five days. […] Mean % net cell growth is calculated using the formula [(mean OD(day5)−mean OD(day0))/(mean OD(day0))×100%]. Mean % inhibition of cell growth due to treatment is calculated relative to the mean % net cell growth of the Day 5 vehicle control for the particular cancer line.

Mia-PaCa-2 = assay: Mouse hollow fiber model, pancreatic cancer (Mia-PaCa-2); assay type: in vivo; conditions: pancreatic cancer Mia-PaCa-2 hollow fibers s.c. in mice; 50 mg/kg orally once daily for five days; modified MTT; vs Day 5 vehicle
Procedure: as §1

HepG2 = assay: Mouse hollow fiber model, liver cancer (HepG2); assay type: in vivo; conditions: liver cancer HepG2 hollow fibers s.c. in mice; 50 mg/kg orally once daily for five days; modified MTT; vs Day 5 vehicle
Procedure: as §1

[2] = Body weight and clinical signs in the mouse hollow fiber study; assay type: in vivo; conditions: mice, 50 mg/kg orally once daily for 5 days
Procedure: as §1, with “line. […]” for “line.”

MDA-MB-231 [3] = assay: Mouse xenograft model of TNBC (MDA-MB-231), tumor volume and histopathology; assay type: in vivo
Procedure: (§2) The in vivo efficacy of test compounds (e.g., 6-(2,4-dimethylthiazol-5-yl)-2-((1-(pyrido[2,3-d]pyrimidin-4-yl)piperidin-4-yl)methyl)pyridazin-3(2H)-one) on cancer cells is determined using a mouse xenograft model of TNBC (MDA-MB-231). 5×10^6 MDA-MB-231 cells (in 0.2 ml of FBS-free medium containing 50% Matrigel) are injected into the subcutaneous tissue of each mouse. Treatment is initiated (Day 0) when the average tumor volume reaches 100 mm^3. Tumor bearing mice are treated with vehicle and different doses of test compound (15 mg/kg, 35 mg/kg, 50 mg/kg, and 100 mg/kg) orally, once daily, for 3 weeks. Tumor volumes (mm^3) are measured post-implantation of cells once every 2-3 days throughout the study. At the end of the treatment period, a portion of the tumor tissue is excised and homogenized to analyze the levels of MYC biomarker using ELISA. Blood samples are collected from mice treated with test compound 8 hours after the final dose.

[4] = Plasma concentration of test compound in xenograft mice; assay type: in vivo, mouse; conditions: for concentration at 8 h: mouse, plasma, oral, tumor bearing mice, read-out: Test compound concentrations in plasma 8 h after last dose, Mean ± SD
Procedure: as §2

MYC = MYC biomarker in tumor homogenate by ELISA, xenograft mice; assay type: in vivo, mouse; conditions: for MYC protein levels in tumor homogenate, Mean ± SD: ELISA, vehicle control 41.93 ± 5.38
Procedure: as §2

[5] = Body weight and clinical signs in the mouse xenograft study; assay type: in vivo; conditions: 15-100 mg/kg orally once daily for 3 weeks, throughout the study
Procedure: as §2

[6] = 15-100 mg/kg orally once daily for 3 weeks
[7] = 15 mg/kg orally once daily for 3 weeks
[8] = 35 mg/kg orally once daily for 3 weeks
[9] = 50 mg/kg orally once daily for 3 weeks
[10] = 100 mg/kg orally once daily for 3 weeks

## Cc1nc(C)c(-c2ccc(=O)n(CC3CCN(c4ncnc5ncccc45)CC3)n2)s1 [test compound, 6-(2,4-dimethylthiazol-5-yl)-2-((1-(pyrido[2,3-d]pyrimidin-4-yl)piperidin-4-yl)methyl)pyridazin-3(2H)-one]
MDA-MB-231 [1]
  growth inhibition (mean % inhibition of cell growth): 88.2%
Mia-PaCa-2
  growth inhibition (mean % inhibition of cell growth): 63.0%
HepG2
  growth inhibition (mean % inhibition of cell growth): 28.1%
[2]
  changes in body weight versus the vehicle-treated group: no significant changes
MDA-MB-231 [3]; 15 mg/kg orally once daily, Day 0
  Tumor volume, Mean: 93 mm^3
MDA-MB-231 [3]; 15 mg/kg orally once daily, Day 2
  Tumor volume, Mean: 137 mm^3
MDA-MB-231 [3]; 15 mg/kg orally once daily, Day 5
  Tumor volume, Mean: 212 mm^3
MDA-MB-231 [3]; 15 mg/kg orally once daily, Day 8
  Tumor volume, Mean: 330 mm^3
MDA-MB-231 [3]; 15 mg/kg orally once daily, Day 10
  Tumor volume, Mean: 435 mm^3
MDA-MB-231 [3]; 15 mg/kg orally once daily, Day 12
  Tumor volume, Mean: 534 mm^3
MDA-MB-231 [3]; 15 mg/kg orally once daily, Day 14
  Tumor volume, Mean: 749 mm^3
MDA-MB-231 [3]; 15 mg/kg orally once daily, Day 16
  Tumor volume, Mean: 921 mm^3
MDA-MB-231 [3]; 15 mg/kg orally once daily, Day 19
  Tumor volume, Mean: 1157 mm^3
MDA-MB-231 [3]; 15 mg/kg orally once daily, Day 21
  Tumor volume, Mean: 1494 mm^3
MDA-MB-231 [3]; 35 mg/kg orally once daily, Day 0
  Tumor volume, Mean: 92 mm^3
MDA-MB-231 [3]; 35 mg/kg orally once daily, Day 2
  Tumor volume, Mean: 129 mm^3
MDA-MB-231 [3]; 35 mg/kg orally once daily, Day 5
  Tumor volume, Mean: 191 mm^3
MDA-MB-231 [3]; 35 mg/kg orally once daily, Day 8
  Tumor volume, Mean: 307 mm^3
MDA-MB-231 [3]; 35 mg/kg orally once daily, Day 10
  Tumor volume, Mean: 390 mm^3
MDA-MB-231 [3]; 35 mg/kg orally once daily, Day 12
  Tumor volume, Mean: 485 mm^3
MDA-MB-231 [3]; 35 mg/kg orally once daily, Day 14
  Tumor volume, Mean: 739 mm^3
MDA-MB-231 [3]; 35 mg/kg orally once daily, Day 16
  Tumor volume, Mean: 897 mm^3
MDA-MB-231 [3]; 35 mg/kg orally once daily, Day 19
  Tumor volume, Mean: 1101 mm^3
MDA-MB-231 [3]; 35 mg/kg orally once daily, Day 21
  Tumor volume, Mean: 1459 mm^3
MDA-MB-231 [3]; 50 mg/kg orally once daily, Day 0
  Tumor volume, Mean: 94 mm^3
MDA-MB-231 [3]; 50 mg/kg orally once daily, Day 2
  Tumor volume, Mean: 123 mm^3
MDA-MB-231 [3]; 50 mg/kg orally once daily, Day 5
  Tumor volume, Mean: 191 mm^3
MDA-MB-231 [3]; 50 mg/kg orally once daily, Day 8
  Tumor volume, Mean: 295 mm^3
MDA-MB-231 [3]; 50 mg/kg orally once daily, Day 10
  Tumor volume, Mean: 368 mm^3
MDA-MB-231 [3]; 50 mg/kg orally once daily, Day 12
  Tumor volume, Mean: 463 mm^3
MDA-MB-231 [3]; 50 mg/kg orally once daily, Day 14
  Tumor volume, Mean: 716 mm^3
MDA-MB-231 [3]; 50 mg/kg orally once daily, Day 16
  Tumor volume, Mean: 875 mm^3
MDA-MB-231 [3]; 50 mg/kg orally once daily, Day 19
  Tumor volume, Mean: 1078 mm^3
MDA-MB-231 [3]; 50 mg/kg orally once daily, Day 21
  Tumor volume, Mean: 1397 mm^3
MDA-MB-231 [3]; 100 mg/kg orally once daily, Day 0
  Tumor volume, Mean: 88 mm^3
MDA-MB-231 [3]; 100 mg/kg orally once daily, Day 2
  Tumor volume, Mean: 126 mm^3
MDA-MB-231 [3]; 100 mg/kg orally once daily, Day 5
  Tumor volume, Mean: 186 mm^3
MDA-MB-231 [3]; 100 mg/kg orally once daily, Day 8
  Tumor volume, Mean: 290 mm^3
MDA-MB-231 [3]; 100 mg/kg orally once daily, Day 10
  Tumor volume, Mean: 363 mm^3
MDA-MB-231 [3]; 100 mg/kg orally once daily, Day 12
  Tumor volume, Mean: 458 mm^3
MDA-MB-231 [3]; 100 mg/kg orally once daily, Day 14
  Tumor volume, Mean: 652 mm^3
MDA-MB-231 [3]; 100 mg/kg orally once daily, Day 16
  Tumor volume, Mean: 782 mm^3
MDA-MB-231 [3]; 100 mg/kg orally once daily, Day 19
  Tumor volume, Mean: 933 mm^3
MDA-MB-231 [3]; 100 mg/kg orally once daily, Day 21
  Tumor volume, Mean: 1158 mm^3
MDA-MB-231 [3]; [6]
  Histopathology of tumors compared to the vehicle: dose-dependent decrease in tumor cells, increase in necrosis and decrease in blood vessel formation
  mean tumor volumes compared to the vehicle control on day 21: dose-dependent decreases
[4]; [6]
  concentrations of test compound in the plasma, trend with dose: dose-dependent increases
[4]; [7]
  concentration at 8 h: 10.3 ± 1.7 ng/mL
[4]; [8]
  concentration at 8 h: 42.6 ± 29.1 ng/mL
[4]; [9]
  concentration at 8 h: 59.4 ± 21.9 ng/mL
[4]; [10]
  concentration at 8 h: 230 ± 111 ng/mL
MYC; [7]
  MYC protein levels in tumor homogenate, Mean ± SD: 35.70 ± 2.45 ng/mg tumor homogenate
MYC; [8]
  MYC protein levels in tumor homogenate, Mean ± SD: 29.55 ± 2.93 ng/mg tumor homogenate
MYC; [9]
  MYC protein levels in tumor homogenate, Mean ± SD: 29.11 ± 4.66 ng/mg tumor homogenate
MYC; [10]
  MYC protein levels in tumor homogenate, Mean ± SD: 23.53 ± 4.28 ng/mg tumor homogenate
MYC; [6]
  MYC biomarker levels in the tumor, trend with dose: dose-dependent decreases
[5]
  Body weight and clinical signs of animals: apparently normal
